Measurements: patent publication US20220153766A1, “CONDENSED TRICYCLIC COMPOUND USED AS KINASE INHIBITOR” (Hangzhou Innogate Pharma Co., Ltd., priority 2019, published 2022)

Tests used:
EGFR (T790M/L858R/C797S) = EGFR (T790M/L858R/C797S) (Homo sapiens, UniProt P00533, C797S/L858R/T790M); assay: EGFR (T790M/L858R/C797S) kinase activity inhibition, Caliper mobility shift assay; format: biochemical; conditions: kinase 2.5 nM, ATP 40 μM
Protocol: The basic method is the same as ALK activity test method 2. The test concentration of the compound starts at 2 μM, and is diluted 5 folds into 6 (7 for individual compounds) concentration points. […] Add 30 μL of stop solution containing EDTA to stop the kinase reaction. Use Caliper EZ Reader to read the conversion rate. Inhibition rate %=(Average positive control conversion rate %−Sample conversion rate %/(Average positive control conversion rate %−Average negative control conversion rate %). Among them: negative control wells represent the conversion rate readings without enzyme activity; positive control wells represent the conversion rate readings of wells without compound inhibition. Take the log value of the concentration as the X-axis, and the percentage inhibition rate on the Y-axis. Log (inhibitor) vs. response—Variable slope of analysis software GraphPad Prism 5 was used to fit the curve to obtain the IC50 value of each compound on the enzyme activity. Calculation formula: Y=Bottom+(Top−Bottom)/(1+10^((Log IC50−X)*HillSlope)).

[1] = target: T1, Ba/F3_EGFR del19/T790M/C797S cells (Homo sapiens, UniProt P00533, T790M/C797S, cells depend on it, form not given); assay: Ba/F3_EGFR (del19-T790M-C797S) cell proliferation inhibition, CTG, method 1; format: cell-based
T1 sequence (P00533 with tags, fused parts or gaps DEL746-750/T790M/C797S, form open): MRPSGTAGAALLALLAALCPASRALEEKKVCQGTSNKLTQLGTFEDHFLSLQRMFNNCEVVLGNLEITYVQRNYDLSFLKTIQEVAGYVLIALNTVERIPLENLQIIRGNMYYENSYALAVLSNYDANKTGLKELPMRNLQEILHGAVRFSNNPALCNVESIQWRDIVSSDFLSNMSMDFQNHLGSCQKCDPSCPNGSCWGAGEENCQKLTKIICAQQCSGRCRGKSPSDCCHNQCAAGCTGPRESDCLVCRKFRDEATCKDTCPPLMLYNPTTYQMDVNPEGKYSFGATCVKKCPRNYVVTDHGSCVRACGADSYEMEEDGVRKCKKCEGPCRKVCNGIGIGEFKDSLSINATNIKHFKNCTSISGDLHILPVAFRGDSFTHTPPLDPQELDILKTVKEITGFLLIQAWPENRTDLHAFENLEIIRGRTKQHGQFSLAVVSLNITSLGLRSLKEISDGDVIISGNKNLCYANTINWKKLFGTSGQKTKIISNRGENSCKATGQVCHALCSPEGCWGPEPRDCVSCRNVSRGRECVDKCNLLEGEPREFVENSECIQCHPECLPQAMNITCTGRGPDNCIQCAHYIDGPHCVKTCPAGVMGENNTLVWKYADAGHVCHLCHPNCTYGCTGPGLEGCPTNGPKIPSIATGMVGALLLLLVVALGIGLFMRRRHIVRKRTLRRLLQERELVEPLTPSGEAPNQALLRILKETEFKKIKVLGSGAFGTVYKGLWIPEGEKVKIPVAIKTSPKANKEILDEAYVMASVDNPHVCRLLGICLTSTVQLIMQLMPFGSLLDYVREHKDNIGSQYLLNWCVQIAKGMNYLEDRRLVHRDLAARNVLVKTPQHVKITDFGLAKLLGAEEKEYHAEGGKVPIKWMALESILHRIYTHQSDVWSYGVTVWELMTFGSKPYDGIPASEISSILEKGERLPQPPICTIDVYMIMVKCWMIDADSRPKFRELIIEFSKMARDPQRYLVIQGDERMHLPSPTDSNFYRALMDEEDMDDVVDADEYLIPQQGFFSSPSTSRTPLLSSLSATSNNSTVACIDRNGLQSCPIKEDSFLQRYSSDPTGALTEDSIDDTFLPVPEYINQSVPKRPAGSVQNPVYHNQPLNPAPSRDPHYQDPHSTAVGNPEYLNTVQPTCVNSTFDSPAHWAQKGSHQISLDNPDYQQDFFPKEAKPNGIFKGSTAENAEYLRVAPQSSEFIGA
Protocol: The cells were cultured in a 37° C., 5% CO2 incubator.
Cell plating and compound treatment: 1) Cells are routinely cultured until the cell saturation is 80%-90%, and when the number reaches the requirement, the cells are collected. 2) Resuspend in the corresponding fresh medium, take a small amount of cells to count, and prepare a cell suspension with a suitable density. 3) Inoculate the cell suspension into a 384-well plate at 700 cells/well, 30 μL per well. 4) Use Echo to add the compound to the corresponding cell well. The maximum starting concentration of the compound is 1-10 μM, 3 folds dilution, 8 concentrations.
CTG method detection: 1) Add 30 μL of CTG reagent (CelltiterGlo kit) to each well, and let it stand for 30 minutes at 37° C. and 5% CO2 in the dark. 2) Use Envision instrument to read the chemiluminescence signal value.
Data analysis: IC50 results are analyzed by GraphPad Prism 6 software. […] X: log value of compound concentration; Y: inhibition rate (% inhibition); inhibition rate (% inhibition)=(blank control well reading−compound well reading)/(blank control well reading−positive control reading)×100.

MAP4K1 (HPK1) = MAP4K1 (HPK1) (Homo sapiens, UniProt Q92918); assay: MAP4K1 (HPK1) kinase activity inhibition, Caliper mobility shift assay; format: biochemical; conditions: kinase 1.25 nM, ATP 10.1 μM
Sequence of MAP4K1 (HPK1) (Q92918 whole entry): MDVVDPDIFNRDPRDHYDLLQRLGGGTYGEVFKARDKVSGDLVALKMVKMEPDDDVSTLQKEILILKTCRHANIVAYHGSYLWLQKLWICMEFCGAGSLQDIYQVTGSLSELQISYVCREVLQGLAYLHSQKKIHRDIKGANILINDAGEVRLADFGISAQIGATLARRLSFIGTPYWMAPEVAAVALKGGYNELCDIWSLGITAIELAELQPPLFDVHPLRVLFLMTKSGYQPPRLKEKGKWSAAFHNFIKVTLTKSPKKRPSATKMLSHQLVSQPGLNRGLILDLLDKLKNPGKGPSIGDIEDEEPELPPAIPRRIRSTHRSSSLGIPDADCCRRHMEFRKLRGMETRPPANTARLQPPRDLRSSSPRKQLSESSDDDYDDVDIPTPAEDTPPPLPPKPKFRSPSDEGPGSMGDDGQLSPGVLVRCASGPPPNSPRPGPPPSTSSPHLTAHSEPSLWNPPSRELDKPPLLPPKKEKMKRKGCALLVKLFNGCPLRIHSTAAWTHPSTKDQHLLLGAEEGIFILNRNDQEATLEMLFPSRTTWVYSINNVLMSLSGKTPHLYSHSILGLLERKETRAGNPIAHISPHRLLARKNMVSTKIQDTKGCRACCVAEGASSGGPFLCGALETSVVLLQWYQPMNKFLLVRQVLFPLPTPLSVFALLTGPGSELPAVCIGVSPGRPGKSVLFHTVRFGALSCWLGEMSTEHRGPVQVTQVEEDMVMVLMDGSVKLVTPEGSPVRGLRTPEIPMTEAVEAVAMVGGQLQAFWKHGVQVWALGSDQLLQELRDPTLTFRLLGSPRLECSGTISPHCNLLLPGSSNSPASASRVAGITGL
Protocol: 4. MAP4K1 (HPK1) Kinase Activity Inhibition Experiment: Caliper mobility shift assay was used to detect the inhibitory effect of the compound on MAP4K1 (HPK1) kinase activity. The test concentration of the compound starts at 500 nM, and is diluted 5 folds into 5 concentration points. Use a dispenser Echo 550 to transfer 250 nL 100-fold final concentration of the compound to the target plate 3573, add 10 μL of MAP4K1 (HPK1) kinase solution with a final concentration of 1.25 nM, and incubate for 10 minutes at room temperature (the negative control well contains 10 μL kinase buffer and 250 nL 100% DMSO; the positive control well contains 10 μL kinase solution and 250 nL 100% DMSO). On the kinase MAP4K1 (HPK1), add 15 μL of ATP with a final concentration of 10.1 μM and 3 μM substrate peptide No. 25 mixed solution to react for 120 minutes. Add 30 μL of stop solution containing EDTA to stop the kinase reaction. Use Caliper EZ Reader to read the conversion rate. Inhibition rate %=(Average positive control conversion rate %−Sample conversion rate %/(Average positive control conversion rate %−Average negative control conversion rate %). Among them: negative control wells represent the conversion rate readings without enzyme activity; positive control wells represent the conversion rate readings of wells without compound inhibition. Take the log value of the concentration as the X-axis, and the percentage inhibition rate on the Y-axis. Log (inhibitor) vs. response—Variable slope of analysis software GraphPad Prism 5 was used to fit the curve to obtain the IC50 value of each compound on the enzyme activity. Calculation formula: Y=Bottom+(Top−Bottom)/(1+10 ^((Log IC50−X)*HillSlope)).

[2] = Pharmacokinetic study in rats after intragastrical administration; format: in vivo; conditions: male, rat, plasma, po, SD rats, 3 mg/kg; for AUC(0-t): read-out: AUC0-24 h
Protocol: Example 55: Pharmacokinetic Study in Rats
Instruments: XEVO TQ-S LC/MS instrument produced by Waters. All measurement data is collected and processed by Masslynx V4.1 software, and the data is calculated and processed by Microsoft Excel. Using WinNonLin 8.0 software, the statistical moment method was used to calculate the pharmacokinetic parameters. Mainly include kinetic parameters Tmax, T1/2, Cmax, AUClast etc. […] Injection volume: 5 μL.
Animals: 3 male SD rats with a weight range of 200-220 g. After purchase, they will be kept in the laboratory of the Experimental Animal Center for 2 days and then used. They will be fasted for 12 hours predose and 4 hours after dosing. Drinking water is free during the test. After the rats were gavage, blood samples were taken according to the established time point.
Solvent: 0.5% Methylcellulose (aqueous solution containing 0.4% Tween 80 and 1% ethanol). Preparation of the solution for intragastrical administration: accurately weigh the compound, add it to the solvent, and ultrasonically at room temperature for 5 minutes to completely dissolve the drug, and prepare a 0.3 mg/ml medicinal solution.
Pharmaceutical samples: representative compounds of the structure shown in the patented formula (I) of the present invention, generally, multiple samples with similar structures (with a molecular weight difference of more than 2 units) are taken, accurately weighed, and administered together (cassette PK). In this way, multiple compounds can be screened at the same time and their oral absorption rates can be compared. A single administration was also used to study the pharmacokinetics of the drug sample in rats.
After intragastrical administration, blood was taken from the orbit at 0.25, 0.5, 1, 2, 4, 9, 12 and 24 hours, and placed in a plastic centrifuge tube pretreated with sodium heparin. After centrifugation, the supernatant plasma was used for LC-MS/MS analysis.
Accurately weigh the compounds to prepare different concentrations, perform quantitative analysis on mass spectrometry to establish a standard curve, and then test the concentration of the above-mentioned compound in the plasma to obtain the compound concentration at different time points. All measurement data are collected and processed by relevant software, and the statistical moment method is used to calculate the pharmacokinetic parameters (mainly including kinetic parameters Tmax, T1/2, Cmax, AUClast etc). The results are as follows:
Table 7: Pharmacokinetic Parameters of the Compounds after Intragastrical Administration in SD Rats

[3] = target: T1, Ba/F3_EGFR del19/T790M/C797S cells; assay: Ba/F3_EGFR (del19-T790M-C797S) cell proliferation inhibition, CTG, method 2; format: cell-based; conditions: 2000 cells/well, 72 h, read-out: Ba/F3_EGFR (del19-T790M-C797S) cell proliferation inhibition (IC50 value) Method 2
Protocol: Take a small amount of cells and count them with ViCell. 2) Adjust the cell density, inoculate the cells in a 384-well plate at 2000/well, and incubate in a 37° C., 5% CO2 incubator for 4 hours. 3) Set up the program of Tecan HP D300, add the compound to the well plate. The maximum initial concentration of the compound is 1-4 μM, 3 folds dilution, 9 concentrations, and the DMSO content in each well is unified to 0.2%.
CTG method detection: 1) Take out the CTG reagent and cell plate and equilibrate at room temperature for 30 min, add 25 μL CTG to each well, shake at medium speed for 2 min, centrifuge at 1000 rpm for 1 minutes, and stand still at room temperature for 10 minutes. 2) Envision instrument reads the chemiluminescence signal value.
Data analysis: IC50 results are analyzed by IDBS's XL-fit 5.0 software.

[4] = 700 cells/well, 72 h, read-out: Ba/F3_EGFR (del19-T790M-C797S) cell proliferation inhibition (IC50 value) Method 1

Sequence of EGFR (T790M/L858R/C797S) (P00533 25-1210 T790M/C797S/L858R): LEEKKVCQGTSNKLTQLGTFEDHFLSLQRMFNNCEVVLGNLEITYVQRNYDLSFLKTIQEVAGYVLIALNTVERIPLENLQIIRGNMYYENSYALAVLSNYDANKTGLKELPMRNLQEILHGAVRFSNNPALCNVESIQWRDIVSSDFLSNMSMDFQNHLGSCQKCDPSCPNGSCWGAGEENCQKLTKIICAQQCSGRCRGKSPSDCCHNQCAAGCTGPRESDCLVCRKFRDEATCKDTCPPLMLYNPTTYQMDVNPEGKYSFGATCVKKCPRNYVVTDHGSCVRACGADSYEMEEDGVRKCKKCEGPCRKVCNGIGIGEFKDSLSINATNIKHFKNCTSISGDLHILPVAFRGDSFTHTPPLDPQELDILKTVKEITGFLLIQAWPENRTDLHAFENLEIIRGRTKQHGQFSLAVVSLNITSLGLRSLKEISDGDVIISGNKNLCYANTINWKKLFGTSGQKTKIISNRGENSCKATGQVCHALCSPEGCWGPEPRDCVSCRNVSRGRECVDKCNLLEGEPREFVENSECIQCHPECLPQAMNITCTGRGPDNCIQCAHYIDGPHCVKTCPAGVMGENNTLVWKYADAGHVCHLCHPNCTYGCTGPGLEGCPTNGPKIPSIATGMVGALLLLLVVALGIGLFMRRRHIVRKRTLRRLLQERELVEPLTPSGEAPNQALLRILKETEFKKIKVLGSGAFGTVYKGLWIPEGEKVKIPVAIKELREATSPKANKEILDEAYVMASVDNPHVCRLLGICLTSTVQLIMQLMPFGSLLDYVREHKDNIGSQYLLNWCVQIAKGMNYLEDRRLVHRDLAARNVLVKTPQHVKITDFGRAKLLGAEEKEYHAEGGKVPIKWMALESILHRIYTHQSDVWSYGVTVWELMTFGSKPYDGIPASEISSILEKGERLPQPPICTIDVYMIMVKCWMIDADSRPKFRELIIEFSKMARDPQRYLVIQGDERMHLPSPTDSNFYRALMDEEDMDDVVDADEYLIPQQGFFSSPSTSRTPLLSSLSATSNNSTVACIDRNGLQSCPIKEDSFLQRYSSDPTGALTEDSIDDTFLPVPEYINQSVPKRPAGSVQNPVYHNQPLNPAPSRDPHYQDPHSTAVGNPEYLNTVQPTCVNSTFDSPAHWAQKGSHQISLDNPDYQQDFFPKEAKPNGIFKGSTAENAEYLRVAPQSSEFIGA

Row | Structure (SMILES) | IC50 (EGFR (T790M/L858R/C797S)) | GI50 [1, 4] | IC50 (MAP4K1 (HPK1)) | Cmax [2] | Tmax [2] | half-life [2] | AUC(0-t) [2] | GI50 [3] | GI50 ([1]; read-out: Ba/F3_EGFR (del19-T790M-C797S) cell proliferation inhibition (IC50 value) Method 1, 700 cells/well, 72 h)
1 | CN(C)C/C=C/C(=O)N1CCN2c3ccc(Nc4ncc(Cl)c(Nc5ccccc5P(C)(C)=O)n4)cc3OC[C@H]2C1 [Compound 18R] | < 3 nM | 100 to 200 nM | ≤ 1 nM | – | – | – | – | – | –
2 | Cc1cc(Nc2ncc(Cl)c(Nc3ccccc3P(C)(C)=O)n2)cc2c1N1CCNC[C@H]1CO2 [Compound 23S] | < 3 nM | < 20 nM | ≤ 1 nM | – | – | – | – | – | –
3 | COc1cc(N2CCC(N3CCN(C)CC3)CC2)ccc1Nc1ncc(Cl)c(Nc2ccccc2P(C)(C)=O)n1 [Brigatinib, reference compound] | – | – | 10 to 100 nM | – | – | – | – | > 200 nM | 100 to 200 nM

Further lines, with some results ahead:

Row | IC50 (EGFR (T790M/L858R/C797S)) | GI50 [1, 4] | IC50 (MAP4K1 (HPK1)) | Cmax [2] | Tmax [2] | half-life [2] | AUC(0-t) [2] | GI50 [3] | Structure (SMILES) | GI50 ([1]; read-out: Ba/F3_EGFR (del19-T790M-C797S) cell proliferation inhibition (IC50 value) Method 1, 700 cells/well, 72 h)
4 | 3 to 15 nM | 20 to 100 nM | 1 to 10 nM | – | – | – | – | – | Cc1cc(Nc2ncc(Cl)c(Nc3ccccc3P(C)(C)=O)n2)cc2c1OC[C@H]1CNCCN21 [Compound 24R] | –
5 | < 3 nM | – | ≤ 1 nM | 120 ng/mL | 7.33 h | 3.88 h | 1780 ng·h/mL | 20 to 100 nM | Cc1cc(Nc2ncc(Cl)c(Nc3ccccc3P(C)(C)=O)n2)cc2c1N1CCN(C3CCN(C4CC4)CC3)C[C@@H]1CO2 [Compound 33R] | –
6 | < 3 nM | – | ≤ 1 nM | 160 ng/mL | 1 h | 6.27 h | 1350 ng·h/mL | 20 to 100 nM | Cc1cc(Nc2ncc(Cl)c(Nc3ccccc3P(C)(C)=O)n2)cc2c1N1CCN(C3CCOCC3)C[C@H]1CO2 [Compound 31S] | –
